Test systems include A549; DMS-273; EKVX; HL-60; HOP-62; K562; OVCAR-4; RPMI-8226; SF-268; SF-295; SK-MEL-5; SK-OV-3; UACC-257; UACC-62; UO-31; HOP-92; HT-29; MDA-MB-435; MDA-N; T47D.
Holding throughout (test): inhibition of tumour cell growth, NCI panel, 48 h

Structures are written as SMILES.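 Five compound concentrations were applied to cells in 96-well plates for 48 hours; endpoints were derived by simple linear interpolation of the resulting dose-response curve. GI50: concentration for 50% inhibition of growth.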 The source made the active and inactive calls. No stated cut-off is given here; in the data, active = GI50 up to about 1.1 µM and inactive = higher.

Consider `NC1CCCCC1.O=C(O)C1(P(=O)(O)O)CC1`, for which the GI50 in the experiment with A549, with DMS-273, with EKVX, in the experiment with HL-60, in the experiment with HOP-62 and with K562 was > 100 µM (inactive) throughout. Besides, the GI50 in the experiment on OVCAR-4, in the experiment with RPMI-8226, in the experiment with SF-268, in the experiment with SF-295, in the experiment with SK-MEL-5 and with SK-OV-3 was > 100 µM (inactive) in each case. Moreover, the GI50 in the experiment with UACC-257, in the experiment on UACC-62 and with UO-31 was > 100 µM (inactive) each time.

`CN(C)c1ccc(/C(F)=C(F)/C(F)=C(F)/C(F)=C(\F)c2ccc(Br)cc2)cc1`: the GI50 with A549 was 31.5 µM (inactive); in the experiment on EKVX, 22.9 µM (inactive); with HL-60, 8.97 µM (inactive); in the experiment with HOP-62 it was 37.2 µM (inactive); with HOP-92, 47.6 µM (inactive); in the experiment on HT-29 it was 27.5 µM (inactive). For the same molecule, the GI50 was 13.2 µM (inactive) with K562; 3.1 µM (inactive) with MDA-MB-435; 2.43 µM (inactive) in the experiment with MDA-N; 23.9 µM (inactive) in the experiment on OVCAR-4; 32.7 µM (inactive) with RPMI-8226; 51.8 µM (inactive) in the experiment with SF-268. The GI50 with SF-295 was 6.98 µM (inactive); in the experiment with SK-MEL-5, 25.3 µM (inactive); in the experiment with SK-OV-3 it was 30.1 µM (inactive); with T47D, 34.7 µM (inactive); in the experiment on UACC-257, > 74.1 µM (inactive); in the experiment with UACC-62 it was 22.9 µM (inactive). For the same molecule, the GI50 in the experiment with UO-31 is 25.1 µM (inactive).

Take `CC(C)OC(=O)c1cccnc1/C=N/O`: the GI50 in the experiment on A549, in the experiment with DMS-273, with EKVX, in the experiment with HL-60, in the experiment with HOP-62 and in the experiment on HT-29 was > 100 µM (inactive) throughout. For the same molecule, the GI50 with K562 was > 100 µM (inactive); in the experiment with RPMI-8226, > 100 µM (inactive); in the experiment on SF-268, > 100 µM (inactive); in the experiment on SF-295 it was 88.5 µM (inactive); in the experiment with SK-MEL-5, > 100 µM (inactive); in the experiment with SK-OV-3, > 100 µM (inactive). Besides, the GI50 in the experiment on UACC-257, in the experiment with UACC-62 and with UO-31 was > 100 µM (inactive) in each case.

Consider `CCC1CCCCN1CC(C(C)=O)C(c1ccccc1)c1c(O)c2ccccc2oc1=O` (stereo not given), for which the GI50 with A549 is > 100 µM (inactive); in the experiment with DMS-273, > 100 µM (inactive); with EKVX it was > 100 µM (inactive); in the experiment on HL-60 it was 76.4 µM (inactive); in the experiment with HOP-62, > 100 µM (inactive); in the experiment on HT-29 it was > 100 µM (inactive). In addition, the GI50 in the experiment on K562 was > 100 µM (inactive); in the experiment on OVCAR-4, > 100 µM (inactive); in the experiment on RPMI-8226, 69.5 µM (inactive); with SF-268, > 100 µM (inactive); with SF-295, > 100 µM (inactive); with SK-MEL-5, > 100 µM (inactive). For the same molecule, the GI50 in the experiment with SK-OV-3 is > 100 µM (inactive); in the experiment with UACC-257, > 100 µM (inactive); in the experiment on UACC-62, 82.2 µM (inactive); in the experiment on UO-31, > 100 µM (inactive).

With `CCOC(=O)/C=C1\CCCC12OCCO2`, the GI50 in the experiment on A549 is > 100 µM (inactive); with DMS-273 it was 53.5 µM (inactive); in the experiment with HL-60, > 100 µM (inactive); in the experiment on HOP-62, > 100 µM (inactive); with K562, > 100 µM (inactive); with OVCAR-4, > 100 µM (inactive). Besides, the GI50 in the experiment with RPMI-8226 is 49.7 µM (inactive); with SF-268, > 100 µM (inactive); with SK-MEL-5 it was > 100 µM (inactive); in the experiment with SK-OV-3, > 100 µM (inactive); in the experiment on UACC-257 it was > 100 µM (inactive); in the experiment on UACC-62 it was > 100 µM (inactive). In the experiment with UO-31, the GI50 is > 100 µM (inactive).

In the case of `S=C1ON=C(c2ccccc2)/C1=C/Nc1ccccc1`, the GI50 in the experiment on A549 is > 100 µM (inactive); in the experiment with DMS-273, > 100 µM (inactive); in the experiment on EKVX it was > 100 µM (inactive); in the experiment with HL-60, > 100 µM (inactive); with HT-29, > 100 µM (inactive); with K562 it was 9.98 µM (inactive). For the same molecule, the GI50 was 9.62 µM (inactive) with OVCAR-4; > 100 µM (inactive) in the experiment with RPMI-8226; > 100 µM (inactive) in the experiment with SF-268; > 100 µM (inactive) in the experiment on SF-295; > 100 µM (inactive) in the experiment with SK-MEL-5; > 100 µM (inactive) with SK-OV-3. Also, the GI50 in the experiment with UACC-257 is > 100 µM (inactive); in the experiment with UACC-62, 3.24 µM (inactive); in the experiment with UO-31 it was > 100 µM (inactive).

For the molecule `COc1ccc2c(c1)C1=NCCN(CCO)c3ccc([N+](=O)[O-])c(c31)N2`, the GI50 with A549 is 0.427 µM (active); with EKVX it was 0.705 µM (active); in the experiment on HL-60 it was 0.34 µM (active); in the experiment on HOP-62 it was 0.462 µM (active); in the experiment with HOP-92, 0.395 µM (active); in the experiment with HT-29, 0.324 µM (active). In addition, the GI50 in the experiment on K562 was 0.222 µM (active); in the experiment with MDA-MB-435, 0.493 µM (active); in the experiment on MDA-N, 0.431 µM (active); with OVCAR-4 it was 0.54 µM (active); with RPMI-8226, 0.29 µM (active); in the experiment on SF-268 it was 0.752 µM (active). Further, the GI50 in the experiment with SF-295 is 0.454 µM (active); in the experiment with SK-MEL-5 it was 0.366 µM (active); in the experiment on SK-OV-3, 0.574 µM (active); with T47D, 0.532 µM (active); in the experiment on UACC-257, 0.581 µM (active); in the experiment with UACC-62 it was 0.422 µM (active). In addition, the GI50 with UO-31 is 0.265 µM (active).

For the molecule `CC(C)(C)NCC(COc1ccc([N+](=O)[O-])cc1)OP(c1ccccc1)c1ccccc1` (stereo not given), the GI50 in the experiment on A549 is 40.6 µM (inactive); with DMS-273, 29.8 µM (inactive); in the experiment on EKVX, 53.1 µM (inactive); with HL-60, 19.7 µM (inactive); in the experiment on HOP-62, > 100 µM (inactive); with HT-29 it was 27.7 µM (inactive). For the same molecule, the GI50 in the experiment on K562 is 32.7 µM (inactive); with RPMI-8226, 13.5 µM (inactive); in the experiment with SF-268, 49.1 µM (inactive); with SF-295, 23.7 µM (inactive); with SK-MEL-5, 18.8 µM (inactive); with SK-OV-3 it was 60.5 µM (inactive). The GI50 with UACC-257 is 44 µM (inactive); in the experiment with UACC-62, 44.4 µM (inactive); in the experiment with UO-31 it was 20.6 µM (inactive).

Regarding `NC1CCC2(O)c3ccccc3C2C1` (stereo not given), the GI50 in the experiment with A549, in the experiment with DMS-273, in the experiment on EKVX, with HL-60, with HOP-62 and in the experiment on HT-29 was > 100 µM (inactive) in each case. For the same molecule, the GI50 in the experiment with K562, in the experiment with OVCAR-4, with RPMI-8226, in the experiment with SF-268, in the experiment on SF-295 and in the experiment on SK-MEL-5 was > 100 µM (inactive) in each case. The GI50 with SK-OV-3, in the experiment on UACC-257, with UACC-62 and in the experiment on UO-31 was > 100 µM (inactive) in each case.

For the molecule `COc1ccc(/C=C(/C(=O)c2ccc(Cl)cc2)N2C=CC=CC2=C(C#N)C#N)cc1OC`, the GI50 was 14.4 µM (inactive) with A549; 2.75 µM (inactive) in the experiment on EKVX; 2.37 µM (inactive) in the experiment with HL-60; 20.5 µM (inactive) in the experiment with HOP-62; 3.51 µM (inactive) in the experiment with HOP-92; 5.01 µM (inactive) in the experiment on HT-29. Besides, the GI50 in the experiment with K562 is 0.698 µM (active); in the experiment on MDA-MB-435, 3.89 µM (inactive); with MDA-N, 4.55 µM (inactive); in the experiment with OVCAR-4, 6.58 µM (inactive); in the experiment with RPMI-8226, 2.47 µM (inactive); in the experiment with SF-268 it was 3.55 µM (inactive). For the same molecule, the GI50 in the experiment on SF-295 was 28.5 µM (inactive); with SK-MEL-5 it was 9.25 µM (inactive); in the experiment on SK-OV-3 it was 24.4 µM (inactive); in the experiment with T47D, 4.06 µM (inactive); with UACC-257, 6 µM (inactive); in the experiment on UACC-62 it was 14.9 µM (inactive). Besides, the GI50 with UO-31 was 1.5 µM (inactive).

In the case of `CC1ON2CCCC2[C@H]1C(=O)N1C2CC3CCC2(CS1(=O)=O)C3(C)C` (stereo not given in full), the GI50 in the experiment with A549, with EKVX, in the experiment on HL-60, in the experiment with HOP-62, with HOP-92 and with HT-29 was > 100 µM (inactive) each time. Also, the GI50 in the experiment on K562, with MDA-MB-435, in the experiment on MDA-N, in the experiment with OVCAR-4, with RPMI-8226 and in the experiment with SF-268 was > 100 µM (inactive) in each case. Moreover, the GI50 with SF-295, in the experiment on SK-MEL-5, in the experiment with SK-OV-3, with T47D, in the experiment on UACC-257 and in the experiment with UACC-62 was > 100 µM (inactive) each time. Also, the GI50 with UO-31 was > 100 µM (inactive).

In the case of `CC1C=CC(C)C2(O)C(=O)NC(O)C12` (stereo not given), the GI50 in the experiment with A549, in the experiment on DMS-273, in the experiment on EKVX, with HL-60, in the experiment on HOP-62 and in the experiment with K562 was > 100 µM (inactive) each time. Moreover, the GI50 in the experiment on OVCAR-4, with RPMI-8226, in the experiment on SF-268, with SK-MEL-5, with SK-OV-3 and with UACC-257 was > 100 µM (inactive) each time. In addition, the GI50 in the experiment with UACC-62 and with UO-31 was > 100 µM (inactive) each time.

For the origin of these results see ChEMBL document CHEMBL1201862, “PubChem BioAssay data set” (2004).
